{"source": "patent US7282213B2", "about": "“Method for applying a drug coating to a medical device” (Medtronic, Inc., priority 2002, dated 2007)", "assay": "HPLC check for drug degradation after thermal processing of the electrode coating", "format": "physicochemical", "details": "coating heated to solid-state phase change (hot air tool), dissolved from electrode in solvent, compared to control solution", "description": "Prior attempts at heating a drug to form a more durable drug coating on an electrode surface have been less successful because the drug may degrade during the heating process due to overheating. One advantage of the present invention is that the controlled heating process, using a focused, direct heat source, achieves a change in solid state and micro-crack healing forming a conformable crystalline coating with a decrease in the defect density, without degrading the drug. […] Electrodes coated with beclomethasone dipropionate, according to the thermal processing methods described above and shown in FIG. 3, have been soaked in a solvent to dissolve the drug coating from the electrode surface. The resulting test solution was analyzed using HPLC and compared to HPLC results from a control sample of beclomethasone dipropionate in solution. Chromatograms of the test solution samples were identical to those of the control samples with regards to retention time of the major peak.", "data": [{"smiles": "CCC(=O)OCC(=O)[C@@]1(OC(=O)CC)[C@@H](C)C[C@H]2[C@@H]3CCC4=CC(=O)C=C[C@]4(C)[C@@]3(Cl)[C@@H](O)C[C@@]21C", "note": "[beclomethasone dipropionate anhydrous]", "values": [{"measurement": "degradation products by HPLC after thermal processing", "result": "no peaks associated with degradation products were observed"}]}]}
